This is an account of results in ChEMBL document CHEMBL3046344, “Phytochemical based strategies for nematode control” (2002).

Values after ≈ are worked out from the molar mass of the structure shown. Numbered stars: 1 amine (or outer) side, 2 acyl side, 3 side chain; on linkers, the order of the positions; unused ones are H or OH. Bridge positions count the residues as written; N and C are the ends. Square brackets hold non-standard residues; d marks the D form. Peptide text beside a SMILES is read from it. NMeW = CN[C@@H](Cc1c[nH]c2ccccc12)C(=O)O; X1 = CC(C)[C@@H](C(=O)[*:1])N(C)O[*:2]; NMeI = CC[C@H](C)[C@H](NC)C(=O)O; NMeV = CN[C@H](C(=O)O)C(C)C; Sar = CNCC(=O)O

Assay type in all cases: functional
Assay [1] has as its system Meloidogyne incognita. Kind of assay: Nematocidal activity against Meloidogyne incognita (root-knot nematode) assessed as mortality at 10 ug/ml.
The test system of assay [2] is Panagrellus redivivus. Description: Nematocidal activity against Panagrellus redivivus assessed as mortality at 12.5 ug/ml.
Assay [3] concerns Caenorhabditis elegans. Kind of assay: Nematocidal activity against Caenorhabditis elegans assessed as mortality at 50 ug/ml.
Assay [4] deals with Caenorhabditis elegans. Kind of assay: Nematocidal activity against Caenorhabditis elegans assessed as mortality. Conditions: for LC50 / minimal effective concentration: Caenorhabditis elegans; for minimal effective concentration: read-out: MEC.
The test system of assay [5] is Meloidogyne incognita. Kind of assay: Nematocidal activity against Meloidogyne incognita (root-knot nematode) assessed as inhibition of penetration in tomato root at 25 ug/ml. More on the design: scale not given: the % may be the effect or the level left.
In assay [6] the test system is Panagrellus redivivus. Description: Nematocidal activity against Panagrellus redivivus. As to conditions: read-out: ED50 (the source's name).
Assay [7] relates to Meloidogyne incognita. Description: Nematocidal activity against Meloidogyne incognita (root-knot nematode). Conditions: read-out: LD50 (the source's name).
The subject of assay [8] is Radopholus similis. Description: Nematocidal activity against Radopholus similis. As to conditions: read-out: LD50 (the source's name).
Assay [9] deals with Heterodera schachtii. Kind of assay: Nematocidal activity against Heterodera schachtii. As to conditions: read-out: LD50 (the source's name).
The test system of assay [10] is Pratylenchus penetrans. Kind of assay: Nematocidal activity against Pratylenchus penetrans. Conditions: read-out: LD50 (the source's name).
Assay [11] concerns Ditylenchus dipsaci. Description: Nematocidal activity against Ditylenchus dipsaci assessed as motility. Conditions: read-out: ED50 (the source's name).
Assay [12] deals with Meloidogyne incognita. Kind of assay: Nematocidal activity against Meloidogyne incognita (root-knot nematode) in tomato assessed as reduction of infection at 50 ug/ml. Details: scale not given: the % may be the effect or the level left.
Assay [13] concerns Pratylenchus penetrans. Kind of assay: Nematocidal activity against Pratylenchus penetrans assessed as motility and viability.
Assay [14] relates to Meloidogyne incognita. Description: Nematocidal activity against Meloidogyne incognita (root-knot nematode) assessed as motility and viability.
[15] abbreviates: read-out: LD50 (the source's name).

As to `CCCCCCCC/C=C\C(=O)O` [2-UNDECYLENIC ACID], the Activity in assay [1] was 70%. In the case of `CCCCC1OC(=O)C2=C1CCC=C2` (centres undefined) [3-N-BUTYL-4,5-DIHYDROPHTHALIDE], the Activity in [2] and in [3] was 100% each time.

Consider `CC(=O)C#Cc1ccccc1` [4-PHENYL-3-BUTYN-2-ONE], for which the LC50 in assay [4] (read-out: LC50) is 0.3 µg/mL (≈ 2.08 µM). Take `C=Cc1ccc(O)cc1` [4-VINYLPHENOL]: the minimal effective concentration in assay [4] turned out to be 300 µg/mL. For the molecule `C=CCS[S+]([O-])CC=C` (centres undefined) [ALLICIN], the Activity in [5] is listed as 50%. Regarding `C[C@H]1CC[C@@H]2[C@@H](C)[C@H]3[C@H](C[C@H]4[C@@H]5CC=C6C[C@@H](O[C@@H]7O[C@H](CO)[C@H](O[C@@H]8O[C@@H](C)[C@H](O)[C@@H](O)[C@H]8O)[C@H](O)[C@@H]7O[C@@H]7O[C@@H](C)[C@@H](O)[C@@H](O)[C@H]7O)CC[C@]6(C)[C@H]5CC[C@]34C)N2C1` [ALPHA-CHACONINE], in assay [6], the EC50 worked out at 85 µg/mL (≈ 99.8 µM). In the case of `Oc1ccccc1O` [CATECHOL], the Activity in assay [4] was 100%. For `C=CCc1ccc(O)cc1` [CHAVICOL], the minimal effective concentration in assay [4] is 300 µg/mL.

On to `COc1c(-c2ccco2)coc(=O)c1C` [CLADOBOTRIN], for which, in assay [7], the LC50 amounted to 100 µg/mL (≈ 485 µM). Turning to `COc1cc(CC(C)C(C)Cc2ccc(O)c(OC)c2)ccc1O` (centres undefined) [DIHYDROGUAIARETIC ACID], the LC50 in assay [4] (setting [15]) was found to be 10 µg/mL (≈ 30.3 µM). On to `C=CCc1ccc(O)c(O)c1` [HYDROXYCHAVICOL], for which the minimal effective concentration in assay [4] came to 300 µg/mL. As for `CCCCC/C=C\C/C=C\CCCCCCCC(=O)O` [LINOLEIC ACID], the values for the LC50 in [4] (setting [15]) and in assay [7] were 5 µg/mL (≈ 17.8 µM) and 50 µg/mL (≈ 178 µM), respectively. Take `CC[C@H](C)[C@H]1C(=O)NCC(=O)N(C)[C@@H](Cc2c[nH]c3ccccc23)C(=O)N[C@@H](C(C)C)C(=O)N(C)[C@@H]([C@@H](C)CC)C(=O)N(C)[C@@H](C(C)C)C(=O)ON(C)[C@@H](C(C)C)C(=O)N(C)CC(=O)N(C)[C@@H](C(C)C)C(=O)N(C)[C@@H]([C@@H](C)CC)C(=O)N(C)CC(=O)N[C@@H](C(C)C)C(=O)N1C` [OMPHALOTIN A] ([Sar][NMeV][NMeI][Sar]V[NMeI]G[NMeW]V[NMeI][NMeV]; linker N-C via X1): the LC50 in assay [7] is 0.75 µg/mL (≈ 0.562 µM); in [8], over 75 µg/mL; in assay [9], 30 µg/mL (≈ 22.5 µM); in assay [10], 25 µg/mL (≈ 18.7 µM).

Consider `COc1cc(O)cc(/C=C/c2ccccc2)c1` [PINOSYLVIN METHYL ETHER], for which, in [4] (setting [15]), the LC50 turned out to be 4 µg/mL (≈ 17.7 µM). In the case of `C=C(C)[C@@H]1CCC2=C[C@@H](O)[C@H](O)[C@@H](C)C2C1` (some centres undefined) [RISHITIN], the EC50 in assay [11] worked out at 100 µg/mL (≈ 450 µM). Regarding `C=C/C=C/C#CC1=CC=C(C#CC)SS1` [THIARUBRINE C], the Activity in assay [12] is reported as 95%. In addition, the LC50 was found to be 23500 µg/mL (≈ 102000 µM) in assay [13] and 12400 µg/mL (≈ 53800 µM) in [14]. Take `C[C@H]1CC[C@]2(NC1)O[C@H]1C[C@H]3[C@@H]4CC[C@H]5C[C@@H](O[C@@H]6O[C@H](CO)[C@H](O[C@@H]7O[C@H](CO)[C@@H](O)[C@H](O[C@@H]8OC[C@@H](O)[C@H](O)[C@H]8O)[C@H]7O[C@@H]7O[C@H](CO)[C@@H](O)[C@H](O)[C@H]7O)[C@H](O)[C@H]6O)CC[C@]5(C)[C@H]4CC[C@]3(C)[C@H]1[C@@H]2C` [TOMATINE]: in [6], the EC50 was 50 µg/mL (≈ 48.3 µM).
